Test results published in article PMC7226534, “[^18F]FET-βAG-TOCA: The Design, Evaluation and Clinical Translation of a Fluorinated Octreotide” (Cancers, 2020).

Key:
Wistar rats = conditions: in vivo, iv
Protocol: While adhering to ALARP principles (As Low As Reasonably Practical), a rat dosimetry study was also conducted to enable initial prediction of human Effective Dose. Wistar rats were dosed with a single intravenous injection of [^18F]FET-βAG-TOCA and monitored up to 7 h. Effective Dose for both sexes were estimated at 0.03 mSv/MBq.

rat (HsdHan:WIST strain) = test: GLP single dose intravenous bolus extended acute toxicology study in the rat; type: in vivo; conditions: dose levels 0, 0.25 and 1 mg/kg
Protocol: Two key studies were conducted to assure regulators of the safety of [^18F]FET-βAG-TOCA prior to first-in-human testing. A Good Laboratory Practice single dose intravenous bolus extended acute toxicology study in the rat (HsdHan^TM:WIST strain) was conducted with both [^19F]FET-βAG-TOCA and the propanyl-βAG-TOCA precursor. Animals were monitored throughout; day 2 (interim) and day 14 (termination) analysis were conducted. Dose levels of 0, 0.25 and 1 mg/kg of either test articles were tolerated in-life with no mortality. There were no effects on food consumption or body weight. Clinical pathology changes were noted but were not consistently seen in both sexes and were not associated with any pathological changes. A No Observed Adverse Effect Level (NOAEL) for both [^19F]FET-βAG-TOCA and propanyl-βAG-TOCA was considered to be 1.0 mg/kg. This study followed ‘approach 1’ given in the ICH M3 (R2) guideline to assess whether a single 50 μg (up to 100 μg) dose of the test article can be given to humans. The study design permitted a safety margin of 1000× the equivalent human dose to be established.

Effective Dose predicted for humans from rat dosimetry (Wistar rats) [mSv/MBq]	Substance	Effects on food consumption or body weight (rat (HsdHan:WIST strain))	Tolerability / mortality (rat (HsdHan:WIST strain))
0.03	[^18F]fluoroethyltriazole-βAG-TOCA [Compound 7]		
	[^19F]FET-βAG-TOCA	no effects	no mortality
	propanyl-βAG-TOCA	no effects	no mortality
